{"source": "patent US20050287666A1", "about": "“Cell culture medium comprising transition metals or trace elements” (priority 2004, published 2005)", "type_in_all_cases": "cell-based, human", "key": {"PER.C6 cells [1]": {"test_system": "PER.C6 cells", "assay": "PER.C6 cell growth in AEM with single trace elements added at low concentration (Example 2, FIG. 01)", "conditions": "for effect on PER.C6 cell growth: element added singly to AEM: nickel (nitrate) 0.004 mg/L, cobalt (chloride) 0.001 mg/L, manganese (chloride) 0.028 mg/L, copper (chloride) 0.013 mg/L, compared to control"}, "PER.C6 cells [2]": {"test_system": "PER.C6 cells", "assay": "PER.C6 cell growth after adding cobalt, nickel and manganese to AEM supplemented with TEM-2 (Example 5, FIG. 04)"}, "PER.C6 cells [3]": {"test_system": "PER.C6 cells", "assay": "Lag in the subsequent culture when PER.C6 cells are passaged from overgrown high-density cultures in AEM", "conditions": "for high density culturing / passaging of cells from high-density cultures: PER.C6 cells in AEM, cultures above 2×10^6 vc/mL"}, "PER.C6 cells [4]": {"test_system": "PER.C6 cells", "assay": "PER.C6 growth in AEM supplemented with TEM, TEM without zinc or zinc alone (Example 1 and preliminary work)", "conditions": "zinc evaluated separately", "text": "A trace element mix (TEM) was created and used in various test protocols. […] The following media supplements were compared: • 1) TEM. • 2) TEM without zinc. • 3) Zinc alone at the TEM concentration. • 4) These supplements were each added to individual bottles of AEM at 1×, 3×, 5× and 10×. The conditions were then monitored by observing PER.C6 growth. […] Two of the components in TEM, Cu and Ni would individual be toxic at the 10× levels. These levels of trace elements would have been observed in the preliminary variable observations. Thus it was decided that total trace element concentrations were not responsible for the deleterious effects observed."}}, "note": "“Also recorded” adds a separate entry of the source. Where two headings read alike, the source gives them in different places."}
{"smiles": "[Cl][Mn][Cl]", "note": "[manganese, manganese (chloride)]", "values": [{"measurement": "effect on PER.C6 cell growth", "setting": "PER.C6 cells [1]", "result": "inhibits; also recorded: individually toxic"}, {"measurement": "effect on PER.C6 cell growth performance", "setting": "PER.C6 cells [2]; added to AEM supplemented with TEM-2, same concentrations as in example 2", "result": "no effect"}]}
{"smiles": "[Cl][Cu][Cl]", "note": "[copper, copper (chloride)]", "values": [{"measurement": "duration of log growth phase", "setting": "PER.C6 cells [1]; 0.013 mg/L copper in AEM, all other cultures entered lag phase after day four or five", "result": "continued in the log growth phase through day six"}, {"measurement": "effect on PER.C6 cell growth", "setting": "PER.C6 cells [1]", "result": "best results of all conditions tested; also recorded: extends log phase growth"}, {"measurement": "effect on PER.C6 cell growth", "setting": "PER.C6 cells [1]; listed as Copper", "result": "increase growth"}, {"measurement": "high density culturing / passaging of cells from high-density cultures", "setting": "PER.C6 cells [3]", "result": "does not improve passaging"}]}
{"smiles": "[Zn]", "note": "[Zinc]", "values": [{"measurement": "overall cell growth", "setting": "PER.C6 cells [4]", "result": "improve overall cell growth"}, {"measurement": "high density culturing / passaging of cells from high-density cultures", "setting": "PER.C6 cells [3]", "result": "consistent high density culturing"}, {"measurement": "lag in the subsequent culture", "setting": "PER.C6 cells [3]; passaged from overgrown day 5 cultures, AEM", "result": "did not lag"}]}
{"smiles": "[Cl][Co][Cl]", "note": "[cobalt, cobalt (chloride)]", "values": [{"measurement": "effect on PER.C6 cell growth performance", "setting": "PER.C6 cells [2]", "result": "no effect"}]}
